Experimental data reported in patent publication US9993459B2, “Selective HDAC6 inhibitors and uses thereof” (Universiteit Gent, priority 2015, dated 2018).
pIC50: −log10 of the molar value. Like-named read-outs stand apart in the source and are kept apart here.

Tests used:
HDAC6 = target: T1, HDAC6 (Homo sapiens, UniProt Q9UBN7); test: In vitro HDAC6 inhibition; type: biochemical; conditions: for inhibition at 10 µM: HDAC6, 10 μM
T1 sequence (Q9UBN7 1-1215): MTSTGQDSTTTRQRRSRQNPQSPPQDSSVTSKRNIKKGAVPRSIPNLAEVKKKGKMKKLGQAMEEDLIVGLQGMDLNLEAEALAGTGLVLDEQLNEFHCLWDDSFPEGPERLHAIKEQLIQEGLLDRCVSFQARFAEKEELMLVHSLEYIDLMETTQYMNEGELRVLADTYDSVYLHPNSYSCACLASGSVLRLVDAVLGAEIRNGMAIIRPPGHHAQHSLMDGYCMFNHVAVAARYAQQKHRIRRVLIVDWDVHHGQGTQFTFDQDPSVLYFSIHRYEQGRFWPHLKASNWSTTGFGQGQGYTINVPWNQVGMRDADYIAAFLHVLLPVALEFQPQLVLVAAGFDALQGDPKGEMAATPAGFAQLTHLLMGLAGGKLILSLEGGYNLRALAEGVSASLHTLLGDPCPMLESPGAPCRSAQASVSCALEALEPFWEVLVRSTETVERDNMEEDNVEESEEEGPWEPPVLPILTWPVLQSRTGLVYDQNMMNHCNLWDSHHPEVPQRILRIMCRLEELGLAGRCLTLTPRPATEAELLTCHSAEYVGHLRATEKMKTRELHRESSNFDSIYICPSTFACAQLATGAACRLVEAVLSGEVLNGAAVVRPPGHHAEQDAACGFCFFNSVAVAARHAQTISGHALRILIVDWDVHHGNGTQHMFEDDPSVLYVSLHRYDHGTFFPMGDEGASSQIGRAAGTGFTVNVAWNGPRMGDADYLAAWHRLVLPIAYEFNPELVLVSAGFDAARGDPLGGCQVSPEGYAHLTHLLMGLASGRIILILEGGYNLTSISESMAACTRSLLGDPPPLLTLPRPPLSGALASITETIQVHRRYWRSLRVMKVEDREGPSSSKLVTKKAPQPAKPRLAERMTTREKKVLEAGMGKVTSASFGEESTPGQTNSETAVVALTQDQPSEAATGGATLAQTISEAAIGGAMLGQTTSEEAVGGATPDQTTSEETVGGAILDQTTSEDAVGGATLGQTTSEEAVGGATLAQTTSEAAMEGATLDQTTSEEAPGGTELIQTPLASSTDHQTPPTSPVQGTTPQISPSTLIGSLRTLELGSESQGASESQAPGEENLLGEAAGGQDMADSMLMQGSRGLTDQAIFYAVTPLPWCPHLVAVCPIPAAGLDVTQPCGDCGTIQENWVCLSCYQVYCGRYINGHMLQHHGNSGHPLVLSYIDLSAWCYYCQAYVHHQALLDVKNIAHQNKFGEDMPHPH

HDAC3 = HDAC3 (Homo sapiens, UniProt O15379); test: In vitro HDAC isozyme selectivity screen: HDAC3; type: biochemical
HDAC3, sequence (O15379 whole entry, species assumed): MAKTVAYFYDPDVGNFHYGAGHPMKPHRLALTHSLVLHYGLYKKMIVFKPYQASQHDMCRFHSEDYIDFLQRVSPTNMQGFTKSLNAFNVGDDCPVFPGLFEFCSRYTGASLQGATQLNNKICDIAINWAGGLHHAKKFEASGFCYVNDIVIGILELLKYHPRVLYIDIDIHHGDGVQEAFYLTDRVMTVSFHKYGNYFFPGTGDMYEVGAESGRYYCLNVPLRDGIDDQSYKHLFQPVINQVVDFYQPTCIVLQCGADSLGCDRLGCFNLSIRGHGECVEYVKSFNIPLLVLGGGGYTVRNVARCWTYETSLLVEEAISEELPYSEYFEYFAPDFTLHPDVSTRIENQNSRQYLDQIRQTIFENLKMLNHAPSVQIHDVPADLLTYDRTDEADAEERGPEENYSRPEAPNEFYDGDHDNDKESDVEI
HDAC3, sequence (Q9Y618 395-489 partner limits assumed, species assumed): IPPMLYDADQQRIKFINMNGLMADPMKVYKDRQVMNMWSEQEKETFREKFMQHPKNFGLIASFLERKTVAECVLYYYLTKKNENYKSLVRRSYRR

[1] = test system: glucocorticoid receptor, GR; test: GRE-dependent luciferase reporter p(GRE)2-50-luc in A549 cells; type: cell-based; conditions: for DEX-activated GR-driven gene expression (transcriptional activity of GR): A549, 1 μM or 10 μM, 1 h pre-incubation then DEX 1 μM 5 h
NF-κβ = test: NF-κβ-dependent luciferase reporter p(IL6kB)350hu.IL6P-luc in TNF-activated A549 cells; type: cell-based; conditions: TNF-activated A549, 1 μM or 10 μM
Method: (§1) FIG. 2: A549 cells with the stably integrated recombinant reporter gene p(GRE)2-50-luc (A) were pre-incubated with respective solvents, the selective Glucocorticoid Receptor modulator CpdA (10 μM), 7a, (1 μM or 10 μM), 7b (1 μM or 10 μM), 13a (1 μM or 10 μM) for 1 h after which the synthetic glucocorticoid dexamethasone (DEX,1 μM) was added, where indicated, for 5 h. A549 cells with the stably integrated recombinant reporter gene p(IL6kB)350hu.IL6P-luc (B) or Collagenase-luc (C) were pre-incubated with respective solvents, DEX (1 μM), CpdA (10 μM), 7a, (1 μM or 10 μM), 7b (1 μM or 10 μM), 13a (1 μM or 10 μM) for 1 h after which TNF (2000 units/ml) or PMA (20 nM) were added, where indicated, for 5 h. Cell lysates were assayed for luciferase activities. Promoter activities are expressed as relative induction factor calculated as percentage of maximal DEX (A), TNF (B) or PMA (C) responses. […] Assays were performed in triplicate, and results are averages of at least three independent experiments and shown ±S.D. ****p<0.0001; ***p<0.001; **p<0.01; *p<0.05. Statistical significance was determined on the averaged results, and analysis performed using one-way ANOVA tests followed by a Tukey multiple comparison post test. […]

AP-1 = test: AP1-dependent luciferase reporter pCollagenase-luc in PMA-treated A549 cells; type: cell-based; conditions: A549, 10 μM
Method: as §1

SMILES	inhibition at 10 µM (HDAC6) [%]	pIC50 (HDAC6; HDAC6, Table 1, read-out: IC50)	pIC50 (HDAC3; Table 2)	melting point [°C]	pIC50 (HDAC6; Table 2, read-out: IC50 HDAC6)	effect at 100 μM, HDAC3 (HDAC3; 100 μM)	DEX-activated GR-driven gene expression (transcriptional activity of GR) [1]	block of the activity of NF-κβ (NF-κβ)	AP1-dependent promoter activity as compared to solvent control (DMSO) (AP-1)	enhancement of GR-driven gene expression ([1]; A549, 1 μM, with DEX 1 μM)
O=C(NO)c1ccc(NCc2csc3cc(Br)ccc23)cc1 [Compound 13a, 6-bromo-3-[(4-hydroxycarbamoylphenyl)aminomethyl]-benzothiophene]	99.3	7.19	5.18	179.5	–	–	–	–	–	–
O=C(NO)c1ccc(NCc2csc3ccc(Br)cc23)cc1 [Compound 7b, 5-bromo-3-[(4-hydroxycarbamoylphenyl)aminomethyl]-benzothiophene]	99.2	7.43	–	–	7.43	less than 50%	leaves the transcriptional activity of GR unhampered	not able to block the activity of NF-κβ	clearly induced the AP1-dependent promoter activity	–
O=C(NO)c1ccc(NCc2csc3ccccc23)cc1 [Compound 7a, 3-[(4-hydroxycarbamoylphenyl)aminomethyl]benzothiophene]	99.8	7.85	–	191	–	–	leaves the transcriptional activity of GR unhampered	not able to block the activity of NF-κβ	–	able to significantly enhance GR-driven gene expression
